For this test, the system named is pVHL. The test can be described thus: In vitro pVHL-HIF-2α binding assay (streptavidin pull-down with IVTT HA-VHL30). The conditions noted are these: synthetically hydroxylated biotinylated peptides on streptavidin-agarose, IVTT HA-VHL30, 2 h at 4 °C, stringent and mild buffer. As for the experimental part: Fig. 4 Affinity of HIF-2α mutants for pVHL is correlated with disease phenotype. a Biotinylated HIF-2α peptides (523–541) were immobilized on a streptavidin-coated 96-well plate. Binding to various concentrations of pVHL-elongin B-elongin C (VBC) complex was assayed via ELISA with an anti-eloB antibody. Absorbance was read at 450 nm. Values represent mean of three independent experiments performed in duplicate ± SEM. *p < 0.05; **p < 0.01. b Biotinylated HIF-2αOH peptides (523–541) were immobilized on streptavidin- agarose beads and incubated with in vitro transcribed and translated (IVTT) pVHL. Streptavidin beads were pulled down (PD) and levels of HA-tagged pVHL were visualized via immmunoblotting (IB). c, d Biolayer interferometry kinetic analysis of VBC complex binding to biotinylated HIF-2α peptides (523–541). c Biotinylated peptides were coupled to streptavidin- coated biosensors and monitored for binding to VBC complex at the indicated concentrations. The data were analyzed based on a 1:1 binding model using the BLItz Pro software with the fitted curves shown as gray lines. […]
The in vitro pVHL-HIF-2α binding assay was performed according to a previously published protocol. […] Protein levels of HA-VHL30 were determined by western blotting. […]

Non-standard residues stand in square brackets, D forms with d. *: point of attachment. Biotin = O=C1N[C@H]2[C@H](CS[C@H]2CCCCC(=O)*)N1; Hyp = O=C(O)[C@@H]1C[C@@H](O)CN1

“HIF-2αOH L542 peptide: synthetically P531-hydroxylated HIF-2α peptide (523–542), presumably carrying L542P (Biotin-ELDLETLA[Hyp]YIPMDGEDFQP-NH2; SMILES CC[C@H](C)[C@H](NC(=O)[C@H](Cc1ccc(O)cc1)NC(=O)[C@@H]1C[C@@H](O)CN1C(=O)[C@H](C)NC(=O)[C@H](CC(C)C)NC(=O)[C@@H](NC(=O)[C@H](CCC(=O)O)NC(=O)[C@H](CC(C)C)NC(=O)[C@H](CC(=O)O)NC(=O)[C@H](CC(C)C)NC(=O)[C@H](CCC(=O)O)NC(=O)CCCC[C@@H]1SC[C@@H]2NC(=O)N[C@@H]21)[C@@H](C)O)C(=O)N1CCC[C@H]1C(=O)N[C@@H](CCSC)C(=O)N[C@@H](CC(=O)O)C(=O)NCC(=O)N[C@@H](CCC(=O)O)C(=O)N[C@@H](CC(=O)O)C(=O)N[C@@H](Cc1ccccc1)C(=O)N[C@@H](CCC(N)=O)C(=O)N1CCC[C@H]1C(N)=O)”: the “binding of IVTT pVHL in pull-down (immunoblot, in words)” value is on record as “rescued binding to pVHL”.

For the origin of these results see publication PMC6105673 (Nature Communications, 2018).
